Measured values: US12419305B2, “Antimicrobial compositions” (Firmenich SA, priority 2018, dated 2025)
Where two headings read alike, the source gives them in different places.

What was measured:
S. haemolyticus 114126 = assay: BCT test (bacterial contact time), 120 s, log reduction / effect fraction; CI by Compusyn; format: cell-based; settings: Staphylococcus haemolyticus, 114126, 2 min, contact 120 s, 25% EtOH; for log reduction at 0.25 % strength: dose 0.25% w/v
Method: S. haemolyticus: Suspensions of the S. haemolyticus 114126 strain, isolated from skin, were prepared as follows: Stock cultures (stored at −80° C.) were thawed and sub-cultured onto TSA-TW80 agar plate media, and incubated at 37° C. for 24 h to obtain single colonies. Single colonies of the primary cultures were streaked onto fresh TSA-TW80 plates and incubated at 37° C. for 24 h to prepare secondary cultures. Single colonies of secondary cultures were picked and used to inoculate 50 mL of BHI-TW80 broth. The inoculated broth was incubated at 37° C. at 180 rpm for 18 h. Aliquots (0.5 ml) of the 18 h culture were inoculated into 50 ml of fresh BHI-TW80 broth, and incubated at 37° C. at 180 rpm for approximately 3 hours. When the OD 600 nm value of the broth reached 1-2, cells were harvested by centrifugation at 5000 rpm for 10 min, and then resuspended in fresh BHI-TW80 broth at a concentration of 1-5×10^8 CFU/mL. This suspension was used as the bacterial suspension for the BCT test.
BCT Test: Test compositions at a range of concentrations (either combinations of more than one perfume ingredient, and comparative compositions comprising the single perfume ingredients) were prepared in ethanol. Five replicates of each test composition were added into 96-well microtiter plates (120 μl per well), with row B containing control compositions containing the ethanol solution alone. 120 μl of bacterial cell suspensions at a concentration of approximately 1×10^8 bacteria per mL (as prepared above) were added to each well of the microtiter plate. The bacterial suspensions were incubated with the test solutions for 45, 60, or 120 seconds. Following the incubation of the bacterial suspensions with the test solutions, serial dilutions of the bacterial suspensions were generated (three serial 1:10 dilutions, followed by 17 serial 1:2 dilutions), in multiwell microtiter plates.
Each plate was sealed and incubated at 37° C. under agitation (180 rpm). After incubation, the turbidity of the wells (OD600 nm) was determined using a Tecan microplate reader. Turbid wells were regarded as positive growth, due to the presence of viable cells. The total number of viable cells (log CFU) for each sample was calculated. And the log reduction for each test composition at the final concentration (dose) was calculated against the control sample of the ethanol solution.
Determination of Synergy via the Combination Index (CI): The CI was calculated using Compusyn software (ComboSyn, Inc., as created by Dr. Dorothy Chou in 2005), according to the manufacturer's instructions. The concentration of each test composition (combinations of more than one perfume ingredient, and comparative compositions comprising the single perfume ingredients used to generate the combination) and their corresponding effect fraction was entered, and the corresponding CI calculated.
When the calculated CI values were less than 0.9, the combination of perfume ingredients was regarded as having synergistic effect. When the calculated CI was between 1.0 a 0.9, the combination of perfume ingredients was regarded as having an additive effect. When the calculated CI was greater than 1.0, the combination of perfume ingredients was regarded as having an antagonistic effect.

E. coli ATCC 10536 = assay: BCT test (bacterial contact time), 45 s, log reduction / effect fraction; CI by Compusyn; format: cell-based, Escherichia coli; settings: Escherichia coli, ATCC10536, 45 s
Method in brief: (§1)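 Ethanol solutions of ingredient blends and single ingredients, 5 replicates; bacteria ~1×10^8/mL added 1:1; contact 45 or 60 s as listed; three 1:10 then 17 1:2 dilutions; regrowth 37° C, OD600; viable log CFU → log reduction vs ethanol. CI <0.9 = synergy.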

S. aureus ATCC 6538 = assay: BCT test (bacterial contact time), 60 s, log reduction / effect fraction; CI by Compusyn; format: cell-based, Staphylococcus aureus; settings: Staphylococcus aureus, ATCC6538, 1 min, 60 s, in 25% EtOH
Method in brief: as §1

[1] = test system: Pseudomonas aeruginosa ATCC 15442; assay: as above; format: cell-based; settings: Pseudomonas aeruginosa, ATCC15442, 1 min, BCT 60 s, in 25% EtOH
Method in brief: as §1

[2] = test system: Salmonella enterica ATCC 10708; assay: as above; format: cell-based; settings: Salmonella enterica, ATCC10708, 1 min, BCT 60 s, in 25% EtOH
Method in brief: as §1

C/C=C/c1ccc(O)c(OC)c1 [Isoeugenol, 2-Methoxy-4-(prop-1-en-1-yl)phenol]
log reduction at 0.15 % strength (S. haemolyticus 114126; dose 0.15% w/v): -0.3
log reduction at 0.2 % strength (S. haemolyticus 114126; dose 0.2% w/v): 0.5
log reduction at 0.25 % strength (S. haemolyticus 114126; read-out: Log reduction): 2.2
log reduction at 0.3 % strength (S. haemolyticus 114126; dose 0.3% w/v, read-out: Log reduction): 3.7
log reduction at 0.35 % strength (S. haemolyticus 114126; dose 0.35% w/v): 5.6
log reduction at 0.4 % strength (S. haemolyticus 114126; dose 0.4% w/v, read-out: Log reduction): 7.2
log reduction at 0.05 % strength (E. coli ATCC 10536; dose 0.05% w/v, contact 45 s, 20% EtOH): 0.1
log reduction at 0.07 % strength (E. coli ATCC 10536; dose 0.07% w/v, contact 45 s, 20% EtOH): 0.8
log reduction at 0.09 % strength (E. coli ATCC 10536; dose 0.09% w/v, contact 45 s, 20% EtOH): 2.9
log reduction at 0.1 % strength (E. coli ATCC 10536; dose 0.1% w/v, contact 45 s, 20% EtOH, read-out: Log reduction): 4.9
log reduction at 0.12 % strength (E. coli ATCC 10536; dose 0.12% w/v, contact 45 s, 20% EtOH, read-out: Log reduction): 7.4
log reduction at 0.1 % strength (S. aureus ATCC 6538; dose 0.100 % w/v): 1.1
log reduction at 0.125 % strength (S. aureus ATCC 6538; dose 0.125 % w/v): 3.7
log reduction at 0.15 % strength (S. aureus ATCC 6538; dose 0.150 % w/v, read-out: Log reduction): 5.6
log reduction at 0.2 % strength (S. aureus ATCC 6538; dose 0.200 % w/v, read-out: Log reduction): 7.5
log reduction at 0.125 % strength ([1]; Dose 0.125 % w/v): 7.5
log reduction at 0.15 % strength ([1]; Dose 0.15 % w/v): 7.5
log reduction at 0.05 % strength ([2]; Dose 0.05 % w/v, read-out: Log reduction): -0.1
log reduction at 0.06 % strength ([2]; Dose 0.06 % w/v): 0
log reduction at 0.075 % strength ([2]; Dose 0.075 % w/v): 4
log reduction at 0.08 % strength ([2]; Dose 0.08 % w/v): 4
log reduction at 0.08 % strength ([2]; Dose 0.080 % w/v): 0.8
log reduction at 0.1 % strength ([2]; Dose 0.1 % w/v, read-out: Log reduction): 2.6
log reduction at 0.1 % strength ([2]; Dose 0.10 % w/v, read-out: Log reduction): 6.9
log reduction at 0.11 % strength ([2]; Dose 0.110 % w/v): 7.5
log reduction at 0.12 % strength ([2]; Dose 0.120 % w/v, read-out: Log reduction): 7.2

OC/C=C/c1ccccc1 [Cinnamic alcohol, (2E)-3-phenyl-2-propen-1-ol]
log reduction at 0.25 % strength (S. haemolyticus 114126; read-out: Log reduction): 0.2
log reduction at 0.5 % strength (S. haemolyticus 114126; dose 0.5% w/v): 4.1
log reduction at 1 % strength (S. haemolyticus 114126; dose 1.0% w/v): 7.3
log reduction at 1.25 % strength (S. haemolyticus 114126; dose 1.25% w/v): 7.3
log reduction at 1.5 % strength (S. haemolyticus 114126; dose 1.5% w/v): 7.3
log reduction at 0.2 % strength (E. coli ATCC 10536; dose 0.200 % w/v, 45 s, in 20% EtOH): 0.1
log reduction at 0.25 % strength (E. coli ATCC 10536; dose 0.250 % w/v, 45 s, in 20% EtOH): 0.6
log reduction at 0.3 % strength (E. coli ATCC 10536; dose 0.300 % w/v, 45 s, in 20% EtOH): 1.4
log reduction at 0.35 % strength (E. coli ATCC 10536; dose 0.350 % w/v, 45 s, in 20% EtOH): 4.2
log reduction at 0.4 % strength (E. coli ATCC 10536; dose 0.400 % w/v, 45 s, in 20% EtOH): 7.3
log reduction at 0.3 % strength (S. aureus ATCC 6538; dose 0.300 % w/v, read-out: Log reduction): 1.8
log reduction at 0.35 % strength (S. aureus ATCC 6538; dose 0.350 % w/v, read-out: Log reduction): 2.6
log reduction at 0.4 % strength (S. aureus ATCC 6538; dose 0.400 % w/v, read-out: Log reduction): 5.5
log reduction at 0.45 % strength (S. aureus ATCC 6538; dose 0.45 % w/v): 6.9
log reduction at 0.5 % strength (S. aureus ATCC 6538; dose 0.500 % w/v, read-out: Log reduction): 6.9
log reduction at 0.25 % strength ([1]; Dose 0.25 % w/v, read-out: Log reduction): 4.1
log reduction at 0.3 % strength ([1]; Dose 0.3 % w/v, read-out: Log reduction): 6.7
log reduction at 0.4 % strength ([1]; Dose 0.4 % w/v, read-out: Log reduction): 7.5
log reduction at 0.15 % strength ([2]; Dose 0.15 % w/v): 0.5
log reduction at 0.175 % strength ([2]; Dose 0.175 % w/v): 1
log reduction at 0.2 % strength ([2]; Dose 0.2 % w/v): 1.5
log reduction at 0.25 % strength ([2]; Dose 0.25 % w/v): 4.9
log reduction at 0.3 % strength ([2]; Dose 0.3 % w/v): 7.8
